Reference: ChEMBL document CHEMBL5579840, “Optimization of diastereomeric dihydropyridines as antimalarials” (Eur J Med Chem, 2024)
Activity calls are given as the source filed them. No cut-off for these calls is given here.

Columns and labels:
Plasmodium falciparum [1] = assay: Antiplasmodial activity against chloroquine-sensitive Plasmodium falciparum 3D7; assay type: functional, organism-based
Plasmodium falciparum [2] = assay: Antimalarial activity against Plasmodium falciparum W2 infected in RBC assessed as inhibition of parasite growth incubated for 72 hrs by YOYO1 staining based LSR II flow cytometer; assay type: functional, organism-based; settings: W2, Erythrocyte
Plasmodium falciparum [3] = assay: Antimalarial activity against Plasmodium falciparum W2 infected in RBC assessed as inhibition of growth incubated for 22 days by YOYO1 staining based LSR II flow cytometer; assay type: functional, organism-based; settings: W2, Erythrocyte, 528 h
Plasmodium falciparum [4] = assay: Antimalarial activity against Plasmodium falciparum W2 infected in RBC assessed as reduction in parasitemia at 700 nM measured immediately by YOYO1 staining based LSR II flow cytometer; assay type: functional, organism-based
Plasmodium falciparum [5] = assay: Antimalarial activity against Plasmodium falciparum W2 infected in RBC assessed as parasitemia at 700 nM measured on day 4 by microscopic analysis relative to control; assay type: functional; settings: time 4 day
Plasmodium falciparum [6] = assay: Fold resistance, ratio of EC50 for antiplasmodial activity against Plasmodium falciparum W2 infected in RBC assessed as inhibition of parasite growth incubated for 22 days to EC50 for antiplasmodial activity against Plasmodium falciparum W2 infected in RBC assessed as inhibition of parasite growth incubated for 72 hrs; assay type: functional
Plasmodium berghei [7] = assay: Antimalarial activity against liver stage Plasmodium berghei sporozoites expressing luciferase infected in human HepG2 cells; assay type: functional, organism-based
Plasmodium falciparum [8] = assay: Antimalarial activity against chloroquine,pyrimethamine,mefloquine and atovaquine-resistant Plasmodium falciparum TM90-C2B infected in erythroctes incubated for 72 hrs by SYBR green 1 based spectrofluorometer; assay type: functional, organism-based
Plasmodium falciparum [9] = assay: Antimalarial activity against chloroquine and pyrimethamine-resistant Plasmodium falciparum W2 infected in erythroctes incubated for 72 hrs by SYBR green 1 based spectrofluorometer; assay type: functional, organism-based; settings: for EC50: W2, 72 h
Plasmodium falciparum [10] = assay: Antimalarial activity against chloroquine-sensitive Plasmodium falciparum 3D7 infected in erythroctes incubated for 72 hrs by SYBR green 1 based spectrofluorometer; assay type: functional, organism-based, Erythrocyte; settings: erythrocyte
Plasmodium berghei [11] = assay: Antiplasmodial activity against Plasmodium berghei KBG-173 infected in male mouse assessed as inhibition of parasitemia at 50 mg/kg, po administered as single dose on day 1 post exposure and measured on day 6 post exposure relative to control; assay type: functional; settings: KBG-173, 72 h, time 3 day
Plasmodium falciparum [12] = assay: Antimalarial activity against chloroquine-resistant Plasmodium falciparum K1 infected in erythroctes incubated for 72 hrs by SYBR green 1 based spectrofluorometer; assay type: functional, organism-based, Erythrocyte; settings: erythrocyte
Plasmodium berghei [13] = assay: Antiplasmodial activity against Plasmodium berghei KBG-173 infected in male mouse assessed as inhibition of parasitemia at 50 mg/kg, po administered as single dose on day 1 post exposure and measured on day 3 post exposure relative to control; assay type: functional; settings: KBG-173, 72 h, time 3 day

COc1cc(OC)c(NC(=O)[C@H]2c3ccccc3C(=O)N(CC(C)C)[C@@H]2c2cccs2)cc1Cl
EC50 (Plasmodium falciparum [1]): < 50 nM

CCCOC(=O)C1=C(C)NC2=C(C(=O)CC(c3ccc(OC)c(OC)c3)C2)C1c1ccccc1F (configuration not stated)
EC50 (Plasmodium falciparum [1]): < 50 nM | EC50 (Plasmodium falciparum [2]): 8.4 nM | EC50 (Plasmodium falciparum [3]): 2610 nM | Activity (Plasmodium falciparum [4]): Active | Activity (Plasmodium falciparum [5]): 0% | Ratio EC50 (Plasmodium falciparum [6]): 311

CCOc1ccc(N(C(C)=O)C2=C(N(C)C)C(=O)c3ccccc3C2=O)cc1
EC50 (Plasmodium falciparum [1]): < 50 nM

CCOC(=O)C1=C(C)NC2=C(C(=O)OC(c3ccc(OC)c(OC)c3)C2)C1c1ccccc1Cl (stereo in doubt; 3B)
Activity (Plasmodium berghei [7]): inactive | Activity (Plasmodium falciparum [8]): Active | Activity (Plasmodium falciparum [9]): Active

CCOC(=O)C1=C(C)NC2=C(C(=O)OC(c3ccc(OC)c(OC)c3)C2)C1c1ccccc1C (stereo in doubt; 6B)
Activity (Plasmodium falciparum [8]): Active | Activity (Plasmodium falciparum [9]): Active

CCCC1=C(C(=O)OCC)C(c2ccccc2Cl)C2=C(CC(c3ccc(OC)c(OC)c3)OC2=O)N1 (stereo in doubt; 32B)
EC50 (Plasmodium falciparum [8]): < 100 nM | EC50 (Plasmodium falciparum [9]): < 100 nM | EC50 (Plasmodium falciparum [10]): 16.1 nM | inhibition in vivo at 50 mg/kg (Plasmodium berghei [11]): < 10% | EC50 (Plasmodium falciparum [12]): 9.2 nM | inhibition in vivo at 50 mg/kg (Plasmodium berghei [13]): < 10%

CCOC(=O)C1=C(C)NC2=C(C(=O)CC(c3ccc(Cl)c(OC)c3)C2)C1c1ccccc1Cl (stereo in doubt; 39B)
Activity (Plasmodium berghei [7]): inactive

CCCC1=C(C(=O)OCC)C(c2ccccc2Cl)C2=C(CC(c3ccc(OC)c(OC)c3)CC2=O)N1 (stereo in doubt; 43B)
EC50 (Plasmodium falciparum [8]): 4.4 nM | EC50 (Plasmodium falciparum [9]): 3 nM | EC50 (Plasmodium falciparum [10]): 0.8 nM | inhibition in vivo at 50 mg/kg (Plasmodium berghei [11]): < 10% | EC50 (Plasmodium falciparum [12]): 1.3 nM | inhibition in vivo at 50 mg/kg (Plasmodium berghei [13]): < 10%

COCC1=C(C(=O)OC)C(c2ccc(Cl)cc2C)C2=C(CC(c3ccc(OC)c(OC)c3)CC2=O)N1 (stereo in doubt; 51B)
Activity (Plasmodium berghei [7]): inactive
